The source made the active and inactive calls. No rule for the calls is given here.
Assays:
Assay in all cases: PubChem AID 651978
LIPA = settings: BW5147 mouse T-cell proteome, ABPP-SILAC LC-MS ratio, at 1 µM, stronger effect = lower value
PNPLA6 = settings: BW5147 mouse T-cell proteome, ABPP-SILAC LC-MS ratio, at 1 µM, stronger effect = lower value
AADACL1 = settings: BW5147 mouse T-cell proteome, ABPP-SILAC LC-MS ratio, at 1 µM, stronger effect = lower value
PREPL = settings: BW5147 mouse T-cell proteome, ABPP-SILAC LC-MS ratio, at 1 µM, stronger effect = lower value
ABHD12 = settings: BW5147 mouse T-cell proteome, ABPP-SILAC LC-MS ratio, at 1 µM, stronger effect = lower value
FASN = settings: BW5147 mouse T-cell proteome, ABPP-SILAC LC-MS ratio, at 1 µM, stronger effect = lower value
DPP8 = settings: BW5147 mouse T-cell proteome, ABPP-SILAC LC-MS ratio, at 1 µM, stronger effect = lower value
PNPLA7 = settings: BW5147 mouse T-cell proteome, ABPP-SILAC LC-MS ratio, at 1 µM, stronger effect = lower value
PAFAH1B2 = settings: BW5147 mouse T-cell proteome, ABPP-SILAC LC-MS ratio, at 1 µM, stronger effect = lower value
[1] = biological target: sn-1-specific diacylglycerol lipase ABHD11 (Mus musculus) (UniProt Q8K4F5); settings: BW5147 mouse T-cell proteome, ABPP-SILAC LC-MS ratio, at 1 µM, stronger effect = lower value
DPP4 = settings: BW5147 mouse T-cell proteome, ABPP-SILAC LC-MS ratio, at 1 µM, stronger effect = lower value
ACOT2 = settings: BW5147 mouse T-cell proteome, ABPP-SILAC LC-MS ratio, at 1 µM, stronger effect = lower value
APEH = settings: BW5147 mouse T-cell proteome, ABPP-SILAC LC-MS ratio, at 1 µM, stronger effect = lower value
PRCP = settings: BW5147 mouse T-cell proteome, ABPP-SILAC LC-MS ratio, at 1 µM, stronger effect = lower value
LACTB = settings: BW5147 mouse T-cell proteome, ABPP-SILAC LC-MS ratio, at 1 µM, stronger effect = lower value
CTSA = settings: BW5147 mouse T-cell proteome, ABPP-SILAC LC-MS ratio, at 1 µM, stronger effect = lower value
SIAE = settings: BW5147 mouse T-cell proteome, ABPP-SILAC LC-MS ratio, at 1 µM, stronger effect = lower value
FAAH = settings: BW5147 mouse T-cell proteome, ABPP-SILAC LC-MS ratio, at 1 µM, stronger effect = lower value
DPP9 = settings: BW5147 mouse T-cell proteome, ABPP-SILAC LC-MS ratio, at 1 µM, stronger effect = lower value
[2] = biological target: Platelet-activating factor acetylhydrolase 2, cytoplasmic (Mus musculus) (UniProt Q8VDG7); settings: BW5147 mouse T-cell proteome, ABPP-SILAC LC-MS ratio; PAFAH2; at 1 µM; stronger effect = lower value
[3] = biological target: Acyl-protein thioesterase 1 (Mus musculus) (UniProt P97823); settings: BW5147 mouse T-cell proteome, ABPP-SILAC LC-MS ratio; LYPLA1; at 1 µM; stronger effect = lower value
[4] = biological target: Palmitoyl-protein thioesterase ABHD10, mitochondrial (Mus musculus) (UniProt Q6PE15); settings: BW5147 mouse T-cell proteome, ABPP-SILAC LC-MS ratio, at 1 µM, stronger effect = lower value
ESD = settings: BW5147 mouse T-cell proteome, ABPP-SILAC LC-MS ratio, at 1 µM, stronger effect = lower value
ACOT1 = settings: BW5147 mouse T-cell proteome, ABPP-SILAC LC-MS ratio, at 1 µM, stronger effect = lower value
[5] = biological target: Monoacylglycerol lipase ABHD6 (Mus musculus) (UniProt Q8R2Y0); settings: BW5147 mouse T-cell proteome, ABPP-SILAC LC-MS ratio, at 1 µM, stronger effect = lower value
DPP7 = settings: BW5147 mouse T-cell proteome, ABPP-SILAC LC-MS ratio, at 1 µM, stronger effect = lower value
[6] = biological target: Prolyl endopeptidase (Mus musculus) (UniProt Q9QUR6); settings: BW5147 mouse T-cell proteome, ABPP-SILAC LC-MS ratio; PREP; at 1 µM; stronger effect = lower value
LYPLA2 = settings: BW5147 mouse T-cell proteome, ABPP-SILAC LC-MS ratio, at 1 µM, stronger effect = lower value
PAFAH1B3 = settings: BW5147 mouse T-cell proteome, ABPP-SILAC LC-MS ratio, at 1 µM, stronger effect = lower value

sn-1-specific diacylglycerol lipase ABHD11 (Mus musculus), sequence (Q8K4F5 whole entry, looked up): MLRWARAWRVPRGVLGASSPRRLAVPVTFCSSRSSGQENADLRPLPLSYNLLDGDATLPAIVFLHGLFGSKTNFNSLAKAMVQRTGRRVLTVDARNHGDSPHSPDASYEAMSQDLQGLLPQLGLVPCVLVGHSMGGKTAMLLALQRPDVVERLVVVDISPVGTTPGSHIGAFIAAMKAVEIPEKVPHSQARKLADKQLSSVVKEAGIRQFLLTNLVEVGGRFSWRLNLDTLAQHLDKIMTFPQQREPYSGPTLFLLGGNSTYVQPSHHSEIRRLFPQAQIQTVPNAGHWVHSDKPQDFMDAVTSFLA
Acyl-protein thioesterase 1 (Mus musculus), sequence (P97823 whole entry, looked up): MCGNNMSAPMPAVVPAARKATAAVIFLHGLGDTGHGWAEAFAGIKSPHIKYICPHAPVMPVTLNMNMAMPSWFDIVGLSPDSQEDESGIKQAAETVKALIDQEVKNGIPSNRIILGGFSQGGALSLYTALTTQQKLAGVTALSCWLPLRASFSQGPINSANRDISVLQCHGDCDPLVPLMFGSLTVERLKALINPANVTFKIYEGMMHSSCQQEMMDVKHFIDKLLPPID
Monoacylglycerol lipase ABHD6 (Mus musculus), sequence (Q8R2Y0 whole entry, looked up): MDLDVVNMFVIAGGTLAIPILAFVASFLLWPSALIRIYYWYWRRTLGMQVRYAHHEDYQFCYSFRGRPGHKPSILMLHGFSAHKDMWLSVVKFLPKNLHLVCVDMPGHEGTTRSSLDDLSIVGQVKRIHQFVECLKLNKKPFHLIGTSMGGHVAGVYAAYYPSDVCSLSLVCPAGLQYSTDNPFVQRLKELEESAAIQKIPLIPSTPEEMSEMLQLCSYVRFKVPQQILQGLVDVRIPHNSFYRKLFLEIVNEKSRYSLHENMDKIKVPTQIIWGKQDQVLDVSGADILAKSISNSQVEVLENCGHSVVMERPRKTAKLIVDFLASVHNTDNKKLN
Palmitoyl-protein thioesterase ABHD10, mitochondrial (Mus musculus), sequence (Q6PE15 whole entry, looked up): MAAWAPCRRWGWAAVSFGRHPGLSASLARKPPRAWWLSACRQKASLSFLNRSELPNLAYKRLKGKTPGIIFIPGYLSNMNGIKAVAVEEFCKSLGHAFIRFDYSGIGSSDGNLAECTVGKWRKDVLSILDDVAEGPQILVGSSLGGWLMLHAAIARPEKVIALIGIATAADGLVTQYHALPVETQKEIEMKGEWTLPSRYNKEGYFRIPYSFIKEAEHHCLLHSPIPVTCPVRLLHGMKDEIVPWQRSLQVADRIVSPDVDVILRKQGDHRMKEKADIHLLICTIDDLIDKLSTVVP
Prolyl endopeptidase (Mus musculus), sequence (Q9QUR6 whole entry, looked up): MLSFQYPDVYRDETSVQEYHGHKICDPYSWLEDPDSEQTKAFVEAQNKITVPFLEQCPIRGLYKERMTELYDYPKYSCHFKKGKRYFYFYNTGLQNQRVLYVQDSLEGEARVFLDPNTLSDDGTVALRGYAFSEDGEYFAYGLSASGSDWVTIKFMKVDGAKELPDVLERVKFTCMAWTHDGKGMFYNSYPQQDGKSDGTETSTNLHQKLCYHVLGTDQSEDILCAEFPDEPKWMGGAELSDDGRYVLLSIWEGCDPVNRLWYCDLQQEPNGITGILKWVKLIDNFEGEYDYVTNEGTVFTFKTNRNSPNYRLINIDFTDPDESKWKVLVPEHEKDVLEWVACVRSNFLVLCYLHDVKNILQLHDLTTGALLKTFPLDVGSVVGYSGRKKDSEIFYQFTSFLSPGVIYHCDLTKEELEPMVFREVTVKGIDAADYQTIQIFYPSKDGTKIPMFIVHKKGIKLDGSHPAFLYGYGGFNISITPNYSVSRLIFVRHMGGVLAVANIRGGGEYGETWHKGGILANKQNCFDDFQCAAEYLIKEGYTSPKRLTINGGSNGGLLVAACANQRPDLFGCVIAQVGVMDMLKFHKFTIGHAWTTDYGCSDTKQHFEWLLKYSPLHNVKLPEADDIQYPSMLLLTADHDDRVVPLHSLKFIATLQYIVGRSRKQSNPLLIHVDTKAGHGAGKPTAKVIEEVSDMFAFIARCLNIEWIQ
Platelet-activating factor acetylhydrolase 2, cytoplasmic (Mus musculus), sequence (Q8VDG7 whole entry, looked up): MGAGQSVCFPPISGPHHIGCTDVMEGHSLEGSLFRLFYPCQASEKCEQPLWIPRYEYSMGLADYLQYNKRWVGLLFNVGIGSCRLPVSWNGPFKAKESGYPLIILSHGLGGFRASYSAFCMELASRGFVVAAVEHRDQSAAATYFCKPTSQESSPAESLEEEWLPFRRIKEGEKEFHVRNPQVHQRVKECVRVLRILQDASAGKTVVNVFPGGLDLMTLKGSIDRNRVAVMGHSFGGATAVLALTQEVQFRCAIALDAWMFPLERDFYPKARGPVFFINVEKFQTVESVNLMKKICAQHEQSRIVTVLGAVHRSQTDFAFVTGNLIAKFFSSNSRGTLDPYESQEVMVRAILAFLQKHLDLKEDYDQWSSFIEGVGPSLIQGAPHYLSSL

light/heavy ratio (remaining activity) (LIPA): 1.12 (inactive)
light/heavy ratio (remaining activity) (PNPLA6): 1.2 (inactive)
light/heavy ratio (remaining activity) (AADACL1): 1.05 (inactive)
light/heavy ratio (remaining activity) (PREPL): 0.95 (inactive)
light/heavy ratio (remaining activity) (ABHD12): 1.29 (inactive)
light/heavy ratio (remaining activity) (FASN): 1.1 (inactive)
light/heavy ratio (remaining activity) (DPP8): 1.08 (inactive)
light/heavy ratio (remaining activity) (PNPLA7): 1.29 (inactive)
light/heavy ratio (remaining activity) (PAFAH1B2): 1.04 (inactive)
light/heavy ratio (remaining activity) [1]: 0.74 (inactive)
light/heavy ratio (remaining activity) (DPP4): 1.24 (inactive)
light/heavy ratio (remaining activity) (ACOT2): 1.08 (inactive)
light/heavy ratio (remaining activity) (APEH): 1.06 (inactive)
light/heavy ratio (remaining activity) (PRCP): 0.97 (inactive)
light/heavy ratio (remaining activity) (LACTB): 1.23 (inactive)
light/heavy ratio (remaining activity) (CTSA): 1.11 (inactive)
light/heavy ratio (remaining activity) (SIAE): 0.98 (inactive)
light/heavy ratio (remaining activity) (FAAH): 1.19 (inactive)
light/heavy ratio (remaining activity) (DPP9): 1.06 (inactive)
light/heavy ratio (remaining activity) [2]: 1.3 (inactive)
light/heavy ratio (remaining activity) [3]: 0.03
light/heavy ratio (remaining activity) [4]: 0.76 (inactive)
light/heavy ratio (remaining activity) (ESD): 1.05 (inactive)
light/heavy ratio (remaining activity) (ACOT1): 1.22 (inactive)
light/heavy ratio (remaining activity) [5]: 1.18 (inactive)
light/heavy ratio (remaining activity) (DPP7): 0.87 (inactive)
light/heavy ratio (remaining activity) [6]: 1.08 (inactive)
light/heavy ratio (remaining activity) (LYPLA2): 0.84 (inactive)
light/heavy ratio (remaining activity) (PAFAH1B3): 1.04 (inactive)
SMILES: O=C(CN1CCN(C(=O)c2ccco2)CC1)Nc1cc(C(F)(F)F)ccc1Cl

Source: PubChem BioAssay AID651978 (The Scripps Research Institute Molecular Screening Center, 2013)
